These molecules were tested against Ba/F3-TEL-FGFR2 (Homo sapiens, UniProt P21802+P41212) (assay: Cell viability (proliferation inhibition) of Ba/F3 cells, CellTiter Glo). Conditions: read-out: Ba/F3 cell FGFR2 (IC50 nM), 72 h.
Ba/F3-TEL-FGFR2, sequence (P21802 481-770 limits assumed, one chain of several): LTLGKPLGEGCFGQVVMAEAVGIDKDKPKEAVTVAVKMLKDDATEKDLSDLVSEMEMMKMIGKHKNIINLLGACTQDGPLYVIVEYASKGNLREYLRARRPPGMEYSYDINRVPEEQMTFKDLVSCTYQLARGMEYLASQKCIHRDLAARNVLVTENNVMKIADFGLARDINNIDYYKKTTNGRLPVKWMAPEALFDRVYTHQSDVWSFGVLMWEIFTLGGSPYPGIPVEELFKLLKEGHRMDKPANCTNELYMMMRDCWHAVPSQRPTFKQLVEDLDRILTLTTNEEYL

Row | SMILES | IC50 [nM]
1 | C=C(C)C(=O)Nc1ccc(-c2c(-c3ccc(N=S4(=O)CCCCC4)c(Cl)c3)c3c(N)ncnc3n2C)cc1 [Compound 40, N-(4-(4-amino-5-(3-chloro-4-((1-oxotetrahydro-2H-1λ^6 - thiopyran-1-ylidene)amino)phenyl) -7-methyl-7H-pyrrolo [2,3-d]pyrimidin-6-yl)phenyl) methacrylamide] | 7.7
2 | C=C(C)C(=O)Nc1ccc(-c2c(-c3ccc(N=S4(=O)CCOCC4)c(F)c3)c3c(N)ncnc3n2C)cc1 [Compound 41] | 124
3 | C=C(C)C(=O)Nc1ccc(-c2c(-c3ccc(N=S(C)(C)=O)c(F)c3)c3c(N)ncnc3n2C)c(F)c1 [Compound 42] | 32.9
4 | C=C(C)C(=O)Nc1ccc(-c2c(-c3ccc(N=S4(=O)CCCCC4)cc3F)c3c(N)ncnc3n2C)cc1 [Compound 43, N-(4-(4-amino-5-(2-fluoro-4-((1-oxotetrahydro-2H-1λ^6-thiopyran-1-ylidene)amino)phenyl) -7-methyl-7H-pyrrolo [2,3-d]pyrimidin-6-yl)phenyl) methacrylamide] | 14.2
5 | C=C(C)C(=O)Nc1ccc(-c2c(-c3ccc(N=S(C)(C)=O)c(F)c3)c3c(N)ncnc3n2C)cc1 [Compound 44] | 216
6 | C=C(C)C(=O)Nc1ccc(-c2c(-c3ccc(N=S(C)(C)=O)cc3)c3c(N)ncnc3n2C)cc1 [Compound 45] | 83.1
7 | C=C(C)C(=O)N(C)c1ccc(-c2c(-c3ccc(N=S4(=O)CCCCC4)c(F)c3)c3c(N)ncnc3n2C)cc1 [Compound 46, N-(4-(4-amino-5-(3-fluoro-4-((1-oxotetrahydro 2H-1λ^6 - thiopyran-1-ylidene)amino)phenyl) -7-methyl-7H-pyrrolo [2,3-d]pyrimidin-6-yl)phenyl) - N-methylmethacrylamide] | 162
8 | C=C(C)C(=O)Nc1ccc(-c2c(-c3ccc(N=S(=O)(N4CCCC4)C(F)(F)F)c(F)c3)c3c(N)ncnc3n2C)cc1 (stereo not drawn) [Compound 47, N-(4-(4-amino-5-(3-fluoro-4-((oxo (pyrrolidine-1-yl) (trifluoromethyl) - λ^6-sulfanylidene)amino)phenyl) -7-methyl-7H-pyrrolo [2,3-d]pyrimidin-6-yl)phenyl) methacrylamide] | 2.7
9 | C=C(C)C(=O)Nc1ccc(-c2c(-c3ccc(N=S(C)(=O)C4CCC4)cc3)c3c(N)ncnc3n2C)c(F)c1 (stereo not drawn) [Compound 50, N-(4-(4-amino-5-(4-((cyclobutyl (methyl) (oxo) - λ^6-sulfanylidene)amino)phenyl) -7-methyl-7H-pyrrole [2,3-d]pyrimidin-6-yl) -3-fluorophenyl) methacrylamide] | 7.6
10 | C=C(C)C(=O)Nc1ccc(-c2c(-c3ccc(N=S(=O)(N4CCC4)C(F)(F)F)cc3)c3c(N)ncnc3n2C)cc1 (stereo not drawn) [Compound 51, N-(4-(4-amino-5-(4-((azetidin-1-yl(oxo)(trifluoromethyl)-λ^6-sulfanylidene)amino)phenyl) -7-methyl-7H-pyrrolo [2,3-d]pyrimidin-6-yl)phenyl) methacrylamide] | 19.1
11 | C=C(C)C(=O)Nc1ccc(-c2c(-c3ccc(N=S(=O)(N(C)C)C(F)(F)F)cc3F)c3c(N)ncnc3n2C)cc1 (stereo not drawn) [Compound 52, N-(4-(4-amino-5-(4-(((dimethylamino) (oxo) (trifluoromethyl) -λ^6-sulfanylidene)amino) -2-fluorophenyl) -7-methyl-7H-pyrrolo [2,3-d]pyrimidin-6-yl)phenyl) methacrylamide] | 2.3
12 | C=C(C)C(=O)Nc1ccc(-c2c(-c3ccc(N=S(=O)(N(C)CC)C(F)(F)F)c(F)c3)c3c(N)ncnc3n2C)cc1 (stereo not drawn) [Compound 53, N-(4-(4-amino-5-(4-(((ethyl(methyl)amino)(oxo)(trifluoromethyl)-λ^6-sulfanylidene)amino)-3-fluorophenyl)-7-methyl-7H-pyrrolo[2,3-d]pyrimidin-6-yl)phenyl) methacrylamide] | 10.2
13 | C=C(C)C(=O)Nc1ccc(-c2c(-c3ccc(N=S(=O)(N(C)CC)C(F)(F)F)cc3)c3c(N)ncnc3n2C)cc1 (stereo not drawn) [Compound 54, N-(4-(4-amino-5-(4-(((ethyl (methyl)amino) (oxo) (trifluoromethyl) -λ^6-sulfanylidene)amino)phenyl) -7-methyl-7H-pyrrolo [2,3-d]pyrimidin-6-yl)phenyl) methacrylamide] | 2.8
14 | C=C(C)C(=O)Nc1ccc(-c2c(-c3ccc(N=S(=O)(N4CCC4)C(F)(F)F)c(F)c3)c3c(N)ncnc3n2C)cc1 (stereo not drawn) [Compound 55, N-(4-(4-amino-5-(4-((azetidine 1-yl (oxo) (trifluoromethyl) -λ^6-sulfanylidene)amino)-3-fluorophenyl)-7-methyl-7H-pyrrolo[2,3-d]pyrimidin-6-yl)phenyl) methacrylamide] | 3
15 | C=C(C)C(=O)Nc1ccc(-c2c(-c3ccc(N=S4(=O)CC(C)(C)C4)c(F)c3)c3c(N)ncnc3n2C)cc1 [Compound 57, N-(4-(4-amino-5-(4-((3,3-dimethyl-1-oxo-1λ^6-thiocyclobutyl-1-ylidene)amino) -3-fluorophenyl) -7-methyl-7H-pyrrolo [2,3-d]pyrimidin-6-yl)phenyl) methacrylamide] | 17.4
16 | CC#CC(=O)Nc1ccc(-c2c(-c3ccc(N=S4(=O)CCCC4)cc3)c3c(N)ncnc3n2C)cc1 [Compound 60, N-(4-(4-amino-7-methyl-5-(4-((1-oxotetrahydro-1 λ^6-thiophene-1-ylidene)amino)phenyl) -7H-pyrrolo [2,3-d]pyrimidin-6-yl)phenyl) but-2-ynamide] | 13.1
17 | C=C(C)C(=O)Nc1ccc(-c2c(-c3ccc(N=S4(=O)CCCC4)cc3F)c3c(N)ncnc3n2C)c(F)c1 [Compound 61, N-(4-(4-amino-5-(2-fluoro-4-((1-oxotetrahydro-1λ^6-thiophene-1-ylidene)amino)phenyl)-7-methyl-7H-pyrrolo[2,3-d]pyrimidin-6-yl)-3-fluorophenyl) methacrylamide] | 150
18 | C=C(C)C(=O)Nc1ccc(-c2c(C3=CCC(=S(=O)(CC)C(C)C)C=C3)c3c(N)ncnc3n2C)cc1 (stereo not drawn) [Compound 62, N-(4-(4-amino-5-(4-(ethyl(isopropyl)(oxo)-1λ^6-sulfanylidene)phenyl) -7-methyl-7H-pyrrolo[2,3-d]pyrimidin-6-yl)-phenyl)methacrylamide] | 9.2
19 | C=C(C)C(=O)Nc1ccc(-c2c(-c3ccc(N=S4(=O)CCCCC4)cc3)c3c(N)ncc(C#N)c3n2C)c(F)c1 [Compound 64, N-(4-(4-amino-7-cyano-1-methyl-3-(4-((1-oxotetrahydro-2H-1λ^6-thiopyran-1-ylidene)amino)phenyl) -1H pyrrolo [3,2-c]pyridine-2-yl) -3-fluorophenyl) methacrylamide] | 658
20 | C=C(F)C(=O)N1CC=C(c2c(-c3ccc(N=S4(=O)CCCCC4)cc3)c3c(N)ncnc3n2C)CC1 [Compound 65, 1-(4-(4-amino-7-methyl-5-(4-((1-oxotetrahydro-2H-1 λ^6-thiopyran-1-ylidene)amino)phenyl)-7H-pyrrolo[2,3-d]pyrimidin-6-yl)-3,6-dihydropyridine-1(2H)-yl) -2-fluoropropan-2-enyl-1-one] | 121
21 | CC#CC(=O)N1CC=C(c2c(-c3ccc(N=S4(=O)CCCCC4)cc3)c3c(N)ncnc3n2C)CC1 [Compound 66] | 27.8

Reference: patent EP4553077A1 (Kinoteck Therapeutics Co., Ltd, priority 2022, dated 2024)
